Test results: PubChem BioAssay (NCI)
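Interpolation was linear, between the two tested concentrations surrounding the appropriate level; five concentrations were tested over 48 hours in 96-well plates. GI50 = concentration required for 50% inhibition of growth. TGI is the concentration that stops growth completely.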

Assays:
Test in all cases: NCI anticancer screen, dose series, 48 h
[1] = test system: U251 CNS
[2] = test system: MDA-N
[3] = test system: OVCAR-8 ovarian
[4] = test system: SK-OV-3 ovarian
[5] = test system: SNB-19 CNS
[6] = test system: HOP-62 NSCLC
[7] = test system: OVCAR-4 ovarian
[8] = test system: EKVX NSCLC
[9] = test system: HCT-116 colon
[10] = test system: COLO 205 colon
[11] = test system: ACHN renal
[12] = test system: SK-MEL-28 melanoma
[13] = test system: OVCAR-5 ovarian
[14] = test system: SF-268 CNS
[15] = test system: NCI-H522 lung
[16] = test system: NCI/ADR-RES ovarian
[17] = test system: T-47D breast
[18] = test system: CAKI-1 renal
[19] = test system: SW-620 colon
[20] = test system: UO-31 renal
[21] = test system: TK-10 renal
[22] = test system: OVCAR-3 ovarian
[23] = test system: SK-MEL-2 melanoma
[24] = test system: HS 578T breast
[25] = test system: MCF7 breast
[26] = test system: SNB-75 CNS
[27] = test system: SK-MEL-5 melanoma
[28] = test system: PC-3 prostate
[29] = test system: UACC-257 melanoma
[30] = test system: IGROV1 ovarian
[31] = test system: MDA-MB-435
[32] = test system: MDA-MB-231 breast
[33] = test system: NCI-H460 lung
[34] = test system: SF-295 CNS
[35] = test system: A498 renal
[36] = test system: A549 NSCLC
[37] = test system: HCC-2998 colon
[38] = test system: NCI-H226 lung
[39] = test system: M14 melanoma
[40] = test system: NCI-H23 lung
[41] = test system: CCRF-CEM leukemia
[42] = test system: UACC-62 melanoma
[43] = test system: SF-539 CNS
[44] = test system: BT-549 breast
[45] = test system: KM12 colon
[46] = test system: LOX IMVI melanoma
[47] = test system: HL-60(TB) leukemia
[48] = test system: K-562 leukemia
[49] = test system: HT29 colon
[50] = test system: RXF 393 renal
[51] = test system: DU-145 prostate
[52] = test system: MALME-3M melanoma
[53] = test system: HCT-15 colon
[54] = test system: SN12C renal
[55] = test system: 786-0 renal
[56] = test system: SR leukemia
[57] = test system: HOP-92 NSCLC
[58] = test system: MOLT-4 leukemia
[59] = test system: RPMI-8226 leukemia

For `NC(N)=NC(N)=Nc1ccccc1` (tested in a mixture with another compound), the TGI [1] was greater than 100 µM, the TGI [2] was greater than 100 µM and the TGI [3] was greater than 100 µM. The TGI [4] was greater than 100 µM, the TGI [5] was greater than 100 µM and the TGI [6] was greater than 100 µM. It also gave a TGI [7] greater than 100 µM, a TGI [8] greater than 100 µM and a TGI [9] greater than 100 µM. The TGI [10] was greater than 100 µM, the TGI [11] was greater than 100 µM and the TGI [12] was greater than 100 µM. The TGI [13] was greater than 100 µM, the TGI [14] was greater than 100 µM and the TGI [15] was greater than 100 µM. For the same compound, the TGI [16] was greater than 100 µM, the TGI [17] was 81.4 µM and the TGI [18] was greater than 100 µM. The TGI [19] was greater than 100 µM, the TGI [20] was greater than 100 µM and the TGI [21] was greater than 100 µM. The TGI [22] was greater than 100 µM, the TGI [23] was greater than 100 µM and the TGI [24] was greater than 100 µM. The TGI [25] was greater than 100 µM, the TGI [26] was greater than 100 µM and the TGI [27] was greater than 100 µM. For the same compound, the TGI [28] was greater than 100 µM, the TGI [29] was greater than 100 µM and the TGI [30] was greater than 100 µM. The TGI [31] was greater than 100 µM, the TGI [32] was greater than 100 µM and the TGI [33] was greater than 100 µM. The TGI [34] was greater than 100 µM, the TGI [35] was greater than 100 µM and the TGI [36] was greater than 100 µM. For the same compound, the TGI [37] was greater than 100 µM, the TGI [38] was greater than 100 µM and the TGI [39] was greater than 100 µM. It also gave a TGI [40] greater than 100 µM, a TGI [41] greater than 100 µM and a TGI [42] greater than 100 µM. It also gave a TGI [43] greater than 100 µM, a TGI [44] greater than 100 µM and a TGI [45] greater than 100 µM. The TGI [46] was greater than 100 µM, the TGI [47] was greater than 100 µM and the TGI [48] was greater than 100 µM. It also gave a TGI [49] greater than 100 µM, a TGI [50] greater than 100 µM and a TGI [51] greater than 100 µM. It also gave a TGI [52] greater than 100 µM, a TGI [53] greater than 100 µM and a TGI [54] greater than 100 µM. It also gave a TGI [55] greater than 100 µM.
In the case of `COc1ccc(-c2nc(-c3cnccn3)n(COCCO)n2)cc1`, the TGI [1] is reported as greater than 100 µM, the TGI [2] is reported as greater than 100 µM and the TGI [3] is reported as greater than 100 µM. The TGI [4] was greater than 100 µM, the TGI [5] was greater than 100 µM and the TGI [6] was greater than 100 µM. It also gave a TGI [56] greater than 100 µM, a TGI [7] greater than 100 µM and a TGI [9] greater than 100 µM. It also gave a TGI [10] greater than 100 µM, a TGI [12] greater than 100 µM and a TGI [13] greater than 100 µM. It also gave a TGI [14] greater than 100 µM, a TGI [15] greater than 100 µM and a TGI [16] greater than 100 µM. The TGI [17] was greater than 100 µM, the TGI [19] was greater than 100 µM and the TGI [20] was greater than 100 µM. It also gave a TGI [21] greater than 100 µM, a TGI [22] greater than 100 µM and a TGI [57] greater than 100 µM. The TGI [25] was greater than 100 µM, the TGI [58] was greater than 100 µM and the TGI [27] was greater than 100 µM. For the same compound, the TGI [28] was greater than 100 µM, the TGI [29] was greater than 100 µM and the TGI [30] was greater than 100 µM. It also gave a TGI [31] greater than 100 µM, a TGI [32] greater than 100 µM and a TGI [33] greater than 100 µM. It also gave a TGI [34] greater than 100 µM, a TGI [36] greater than 100 µM and a TGI [37] greater than 100 µM. It also gave a TGI [39] greater than 100 µM, a TGI [40] greater than 100 µM and a TGI [41] greater than 100 µM. The TGI [42] was greater than 100 µM, the TGI [43] was greater than 100 µM and the TGI [44] was greater than 100 µM. For the same compound, the TGI [45] was greater than 100 µM, the TGI [59] was greater than 100 µM and the TGI [46] was greater than 100 µM. For the same compound, the TGI [47] was greater than 100 µM, the TGI [48] was greater than 100 µM and the TGI [49] was greater than 100 µM. For the same compound, the TGI [50] was greater than 100 µM, the TGI [51] was greater than 100 µM and the TGI [53] was greater than 100 µM. For the same compound, the TGI [54] was greater than 100 µM and the TGI [55] was greater than 100 µM.
For `O=c1c(-c2ccc(O)cc2)coc2cc(OC3OC(CO)C(O)C(O)C3O)cc(O)c12` (centres undefined), the GI50 [1] was greater than 100 µM, the TGI [1] was greater than 100 µM and the TGI [2] was greater than 100 µM. For the same compound, the TGI [3] was greater than 100 µM, the GI50 [4] was greater than 100 µM and the TGI [4] was greater than 100 µM. It also gave a TGI [5] greater than 100 µM, a GI50 [6] greater than 100 µM and a TGI [6] greater than 100 µM. The GI50 [56] was greater than 10 µM, the TGI [56] was greater than 100 µM and the GI50 [7] was greater than 100 µM. The TGI [7] was greater than 100 µM, the TGI [8] was greater than 100 µM and the TGI [9] was greater than 100 µM. It also gave a GI50 [10] greater than 100 µM, a TGI [10] greater than 100 µM and a GI50 [11] greater than 10 µM. The TGI [11] was greater than 100 µM, the GI50 [12] was greater than 100 µM and the TGI [12] was greater than 100 µM. For the same compound, the GI50 [13] was greater than 100 µM, the TGI [13] was greater than 100 µM and the GI50 [14] was greater than 10 µM. The TGI [14] was greater than 100 µM, the TGI [15] was greater than 100 µM and the TGI [16] was greater than 10 µM. For the same compound, the GI50 [17] was greater than 100 µM, the TGI [17] was greater than 100 µM and the GI50 [18] was greater than 10 µM. For the same compound, the TGI [18] was greater than 100 µM, the TGI [19] was greater than 10 µM and the TGI [20] was greater than 100 µM. It also gave a TGI [21] greater than 100 µM, a TGI [22] greater than 100 µM and a GI50 [23] greater than 100 µM. The TGI [23] was greater than 100 µM, the TGI [24] was greater than 100 µM and the GI50 [25] was greater than 100 µM. It also gave a TGI [25] greater than 100 µM, a GI50 [26] greater than 10 µM and a TGI [26] greater than 100 µM. The GI50 [58] was greater than 10 µM, the TGI [58] was greater than 100 µM and the GI50 [27] was greater than 100 µM. The TGI [27] was greater than 100 µM, the TGI [28] was greater than 100 µM and the TGI [29] was greater than 100 µM. The GI50 [30] was greater than 100 µM, the TGI [30] was greater than 100 µM and the GI50 [31] was greater than 100 µM. It also gave a TGI [31] greater than 100 µM, a TGI [32] greater than 100 µM and a GI50 [33] greater than 10 µM. The TGI [33] was greater than 100 µM, the TGI [34] was greater than 100 µM and the TGI [35] was greater than 100 µM. The GI50 [36] was greater than 10 µM, the TGI [36] was greater than 100 µM and the TGI [37] was greater than 100 µM. The TGI [38] was greater than 100 µM, the GI50 [39] was greater than 100 µM and the TGI [39] was greater than 100 µM. For the same compound, the GI50 [40] was greater than 100 µM, the TGI [40] was greater than 100 µM and the GI50 [41] was greater than 10 µM. The TGI [41] was greater than 100 µM, the GI50 [42] was greater than 10 µM and the TGI [42] was greater than 100 µM. The TGI [43] was greater than 100 µM, the TGI [44] was greater than 100 µM and the TGI [45] was greater than 100 µM. It also gave a GI50 [59] greater than 10 µM, a TGI [59] greater than 100 µM and a TGI [46] greater than 100 µM. For the same compound, the GI50 [47] was greater than 100 µM, the TGI [47] was greater than 100 µM and the GI50 [48] was greater than 100 µM. For the same compound, the TGI [48] was greater than 100 µM, the TGI [49] was greater than 100 µM and the GI50 [50] was greater than 10 µM. The TGI [50] was greater than 100 µM, the TGI [51] was greater than 100 µM and the GI50 [52] was greater than 100 µM. The TGI [52] was greater than 100 µM, the TGI [53] was greater than 100 µM and the TGI [54] was greater than 100 µM. For the same compound, the GI50 [55] was greater than 10 µM and the TGI [55] was greater than 100 µM.
